Test results taken from patent US12465567B2, “Enhanced antibiotic and drug delivery for aqueous topical applications for human and veterinary uses” (priority 2018, dated 2025).

Experiments:
[1] = test system: reconstructed human skin (EPI-200; Epiderm); experiment: in vitro skin irritation, MTT viability assay; format: cell-based
Experimental: In vitro skin irritation studies were carried out using reconstructed human skin (EPI-200; Epiderm; Mattek Corporation, Ashland, MA). […] Briefly, the MTT assay was performed by transferring the tissues to 24-well plates containing MTT medium (1 mg/ml). After 3 hours, formazan salt formed by cellular mitochondria was extracted with 2 ml/tissue of isopropanol and the optical density will be measured using a plate reader at 570 nm. Relative cell viability will be calculated as % of the mean of the negative control. The cytotoxicity was estimated by the time to kill 50% of the cells (ET-50).

[2] = in-vitro skin penetration, vertical diffusion cell
Experimental: Skin penetration studies were carried out using porcine full-thickness skin (Procured from Department of Animal and Range Sciences, SDSU) and excised human skin (NDRI, Philadelphia, PA). The skin was sandwiched between the two compartments of a vertical diffusion cell and equilibrated for 3 hrs. The receptor compartment was filled with phosphate buffer (pH 7.4) and was maintained at 37° C. with stirring. […] Samples (200μ) were removed from the receptor compartment at predetermined intervals and replaced with an equal volume of fresh buffer. To study the effect of the formulation forming a skin depot, in a separate experiment the skin was treated for 6 hrs and the treatment was removed. The donor compartment was replaced with plain buffer (pH 7.4) and the study was continued for 48 hrs. At the end of the study the skin was taken out and stratum corneum (SC) was removed using tape stripping and the tape strips were soaked in 50% ethanol overnight to extract the drug. The remaining skin (epidermis and dermis) was homogenized using 1M sodium hydroxide solution. Scintillation cocktail was added to all the samples and the radioactive counts were measured in a scintillation counter (Beckman).

Molecule | ET 50 Value [1] [h] | amount of tetracycline in the human skin [2]
Triton X-100 [Positive control] | 5.28 | 
CN(C)[C@@H]1C(O)=C(C(N)=O)C(=O)[C@@]2(O)C(O)=C3C(=O)c4c(O)cccc4[C@@](C)(O)[C@H]3C[C@@H]12 [tetracycline] |  | 20-60 μg/sq·cm
